Data taken from US20250312469A1 (CANGET BIOTEKPHARMA, priority 2024, published 2025).

What was measured:
[1] = test system: CRPC LAPC9 tumors; experiment: LAPC9 CRPC tumor model; format: in vivo, SCID mice; conditions: 8 mg/kg orally once per week, 2 times
[2] = in vivo; conditions: SCID, mouse, po
[3] = test system: CYP3A; experiment: in vitro
Procedure: (§1) The CYP reaction was initiated by adding a CYP probe substrate and incubating at 37° C. for 10-20 minutes, depending on the individual CYP isoform. The reaction was terminated with the addition of 400 μL ice-cold acetonitrile (ACN). […] Positive controls were performed in parallel using a known inhibitor of the individual CYP isoform. […] The samples were then transferred to 96-well plates and analyzed by LC-MS/MS (Appendix 1).

[4] = biological target: T1, CYP2B6 (Homo sapiens, UniProt P20813); experiment: in vitro
T1 sequence (P20813 1-491): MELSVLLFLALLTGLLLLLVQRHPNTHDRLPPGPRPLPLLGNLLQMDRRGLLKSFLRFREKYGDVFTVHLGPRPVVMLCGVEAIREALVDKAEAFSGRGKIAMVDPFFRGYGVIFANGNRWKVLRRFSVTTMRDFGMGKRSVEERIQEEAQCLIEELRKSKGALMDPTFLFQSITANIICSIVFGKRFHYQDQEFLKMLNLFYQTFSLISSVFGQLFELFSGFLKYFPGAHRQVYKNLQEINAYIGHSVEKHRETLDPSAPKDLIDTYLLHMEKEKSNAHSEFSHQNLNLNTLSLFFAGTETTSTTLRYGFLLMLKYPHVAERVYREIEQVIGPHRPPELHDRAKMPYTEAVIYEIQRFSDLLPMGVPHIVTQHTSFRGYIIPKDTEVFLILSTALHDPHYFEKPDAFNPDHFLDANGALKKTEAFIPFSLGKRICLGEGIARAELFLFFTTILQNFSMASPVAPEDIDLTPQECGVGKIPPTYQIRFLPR
Procedure: as §1

[5] = biological target: CYP1A2 (Homo sapiens, UniProt P05177); experiment: in vitro
CYP1A2, sequence (P05177 whole entry): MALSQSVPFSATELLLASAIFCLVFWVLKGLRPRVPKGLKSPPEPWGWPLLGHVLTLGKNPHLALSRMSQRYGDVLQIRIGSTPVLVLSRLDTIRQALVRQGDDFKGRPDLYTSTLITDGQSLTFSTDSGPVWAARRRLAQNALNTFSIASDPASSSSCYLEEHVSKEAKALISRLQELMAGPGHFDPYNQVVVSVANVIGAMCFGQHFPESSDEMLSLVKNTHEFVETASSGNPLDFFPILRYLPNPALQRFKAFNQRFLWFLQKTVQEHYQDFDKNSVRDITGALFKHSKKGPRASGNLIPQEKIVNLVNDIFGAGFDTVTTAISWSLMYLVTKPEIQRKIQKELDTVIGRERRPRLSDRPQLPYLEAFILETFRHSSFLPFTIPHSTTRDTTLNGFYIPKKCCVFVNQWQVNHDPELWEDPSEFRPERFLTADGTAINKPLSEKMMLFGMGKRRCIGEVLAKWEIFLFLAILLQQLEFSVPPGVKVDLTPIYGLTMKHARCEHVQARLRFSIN
Procedure: as §1

[6] = Rat toxicology/MTD, limited numbers, FL118-HPβCD complex powder suspension (Roswell Park); conditions: for MTD at 50 days: Sprague-Dawley, rat, in vivo, po, conservative MTD; for BASO / EOS / HCT / HGB / LYM / MCH / MCHC / MCV / MONO / MPV / NEUT / PDW / PLT / RBC / RDW-SD / RET / WBC / ALB / ALP / ALT / AMYL / BUN / CHOL / CREA / Ca / GLU / Na / PHOS / TBIL / TP: rats, oral; for ALB / ALP / ALT / AMYL / BUN / CHOL / CREA / Ca / GLU / Na / PHOS / TBIL / TP: serum

CCC1(O)C(=O)OCc2c1cc1n(c2=O)Cc2cc3cc4c(cc3nc2-1)OCO4 (centres unmarked) [FL118]
antitumor efficacy [1]: sensitive to FL118
MTD at 4 weekly doses [2]: ~10 mg/kg
CYP3A inhibition ([3]; 1 μM, testosterone probe): does not inhibit these 3 CYP isoforms
inhibition at 1 µM ([3]; human, microsomes, pH 7.4): 0%
CYP2B6 inhibition ([4]; 1 μM): does not inhibit these 3 CYP isoforms
inhibition at 1 µM ([4]; human, microsomes, pH 7.4): 0%
CYP1A2 inhibition ([5]; 1 μM): does not inhibit these 3 CYP isoforms
inhibition at 1 µM ([5]; human, microsomes, pH 7.4): 0.1%
gross pathology ([6]; all doses): no obvious FL118-related gross pathology macroscopic findings
clinical signs, female rats ([6]; all treatment groups): no serious adverse clinical signs
weight loss, female rats ([6]; all treatment groups): ≤ 10%
MTD at 50 days ([6]; female, female rats): ≤ 4.77 mg/kg
MTD at 50 days ([6]; male, male rats): ≥ 2.44 mg/kg
BASO ([6]; 1.56 mg/kg): 0.01-0.02 K/μL
EOS ([6]; 1.56 mg/kg): 0.04-0.07 K/μL
HCT ([6]; 1.56 mg/kg): 44.5-50.5%
HGB ([6]; 1.56 mg/kg): 14.2 to 16 g/dL
LYM ([6]; 1.56 mg/kg): 5.56-8.7 K/μL
MCH ([6]; 1.56 mg/kg): 17.8 to 18.6 pg
MCHC ([6]; 1.56 mg/kg): 31.2 to 32.1 g/dL
MCV ([6]; 1.56 mg/kg): 56.1 to 58.6 fL
MONO ([6]; 1.56 mg/kg): 0.19-0.58 K/μL
MPV ([6]; 1.56 mg/kg): 7.9 to 8.1 fL
NEUT ([6]; 1.56 mg/kg): 0.38-1.37 K/μL
PDW ([6]; 1.56 mg/kg): 9.2 to 10 fL
PLT ([6]; 1.56 mg/kg): 864-1070 K/μL
RBC ([6]; 1.56 mg/kg): 7.67-8.73 M/μL
RDW-SD ([6]; 1.56 mg/kg): 30 to 33.7 fL
RET ([6]; 1.56 mg/kg): 401-524 K/μL
WBC ([6]; 1.56 mg/kg): 6.5-10.7 K/μL
BASO ([6]; 3.05 mg/kg): 0.01-0.04 K/μL
EOS ([6]; 3.05 mg/kg): 0.02-0.1 K/μL
HCT ([6]; 3.05 mg/kg): 34.6-46.5%
HGB ([6]; 3.05 mg/kg): 11.8 to 14.8 g/dL
LYM ([6]; 3.05 mg/kg): 4.83-6.03 K/μL
MCH ([6]; 3.05 mg/kg): 18.4 to 19.2 pg
MCHC ([6]; 3.05 mg/kg): 31.8 to 34.1 g/dL
MCV ([6]; 3.05 mg/kg): 55.6 to 57.8 fL
MONO ([6]; 3.05 mg/kg): 0.09-0.43 K/μL
MPV ([6]; 3.05 mg/kg): 7.6 to 7.8 fL
NEUT ([6]; 3.05 mg/kg): 0.92-1.42 K/μL
PDW ([6]; 3.05 mg/kg): 9.4 to 9.9 fL
PLT ([6]; 3.05 mg/kg): 665-1259 K/μL
RBC ([6]; 3.05 mg/kg): 6.15-8.04 M/μL
RDW-SD ([6]; 3.05 mg/kg): 29.3 to 35.3 fL
RET ([6]; 3.05 mg/kg): 208-625 K/μL
WBC ([6]; 3.05 mg/kg): 6.0-7.9 K/μL
ALB ([6]; 1.56 mg/kg): 3.4 to 4.4 g/dL
ALP ([6]; 1.56 mg/kg): 111-239 U/L
ALT ([6]; 1.56 mg/kg): 63-134 U/L
AMYL ([6]; 1.56 mg/kg): 1547-2358. U/L
BUN ([6]; 1.56 mg/kg): 15 to 20 mg/dL
CHOL ([6]; 1.56 mg/kg): 89 to 111 mg/dL
CREA ([6]; 1.56 mg/kg): 0.1 to 0.5 mg/dL
Ca ([6]; 1.56 mg/kg): 11.2 to 11.6 mg/dL
GLU ([6]; 1.56 mg/kg): 206 to 296 mg/dL
Na ([6]; 1.56 mg/kg): 143 to 154 mmol/L
PHOS ([6]; 1.56 mg/kg): 10.8 to 13.2 mg/dL
TBIL ([6]; 1.56 mg/kg): 0.2 to 0.8 mg/dL
TP ([6]; 1.56 mg/kg): 6.2 to 6.7 g/dL
ALB ([6]; 3.05 mg/kg): 3.6 to 4.3 g/dL
ALP ([6]; 3.05 mg/kg): 37-168 U/L
ALT ([6]; 3.05 mg/kg): 85-111 U/L
AMYL ([6]; 3.05 mg/kg): 1614-2162. U/L
BUN ([6]; 3.05 mg/kg): 15 to 21 mg/dL
CHOL ([6]; 3.05 mg/kg): 38 to 87 mg/dL
CREA ([6]; 3.05 mg/kg): 0.1 to 0.5 mg/dL
Ca ([6]; 3.05 mg/kg): 11.3 to 11.9 mg/dL
GLU ([6]; 3.05 mg/kg): 282 to 438 mg/dL
Na ([6]; 3.05 mg/kg): 147 to 154 mmol/L
PHOS ([6]; 3.05 mg/kg): 4.1 to 10.5 mg/dL
TBIL ([6]; 3.05 mg/kg): 0.3 to 0.7 mg/dL
TP ([6]; 3.05 mg/kg): 5.4 to 6.3 g/dL
mortality ([6]; weekly oral gavage, 7 doses): No mortality occurred
